Common to all, as to assay type: in vitro ADME
The target in data set [1] is T1, UGT1A7 (Homo sapiens, UniProt Q9HAW7).
T1 sequence (Q9HAW7 26-530): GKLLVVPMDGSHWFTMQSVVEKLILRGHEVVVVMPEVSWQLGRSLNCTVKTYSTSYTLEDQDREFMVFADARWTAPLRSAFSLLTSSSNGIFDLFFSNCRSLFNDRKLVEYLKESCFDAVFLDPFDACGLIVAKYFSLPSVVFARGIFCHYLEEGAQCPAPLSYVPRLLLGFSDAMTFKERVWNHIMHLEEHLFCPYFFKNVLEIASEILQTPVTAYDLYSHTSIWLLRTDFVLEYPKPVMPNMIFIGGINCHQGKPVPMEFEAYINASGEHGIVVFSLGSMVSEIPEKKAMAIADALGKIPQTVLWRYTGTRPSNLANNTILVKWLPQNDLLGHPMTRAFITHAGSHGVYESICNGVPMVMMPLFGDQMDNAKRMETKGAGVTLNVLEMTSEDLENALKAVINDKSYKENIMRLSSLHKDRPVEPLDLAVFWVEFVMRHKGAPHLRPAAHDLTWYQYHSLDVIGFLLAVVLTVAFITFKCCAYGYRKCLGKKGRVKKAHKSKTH
The experiment in a line: Glucuronidation by expressed human UGT1A7. Particulars: UGT1A7, 2.5μM substrate, 37°C.

For data set [2], the target named is T2, UGT1A9 (Homo sapiens, UniProt O60656).
T2 sequence (O60656 26-530): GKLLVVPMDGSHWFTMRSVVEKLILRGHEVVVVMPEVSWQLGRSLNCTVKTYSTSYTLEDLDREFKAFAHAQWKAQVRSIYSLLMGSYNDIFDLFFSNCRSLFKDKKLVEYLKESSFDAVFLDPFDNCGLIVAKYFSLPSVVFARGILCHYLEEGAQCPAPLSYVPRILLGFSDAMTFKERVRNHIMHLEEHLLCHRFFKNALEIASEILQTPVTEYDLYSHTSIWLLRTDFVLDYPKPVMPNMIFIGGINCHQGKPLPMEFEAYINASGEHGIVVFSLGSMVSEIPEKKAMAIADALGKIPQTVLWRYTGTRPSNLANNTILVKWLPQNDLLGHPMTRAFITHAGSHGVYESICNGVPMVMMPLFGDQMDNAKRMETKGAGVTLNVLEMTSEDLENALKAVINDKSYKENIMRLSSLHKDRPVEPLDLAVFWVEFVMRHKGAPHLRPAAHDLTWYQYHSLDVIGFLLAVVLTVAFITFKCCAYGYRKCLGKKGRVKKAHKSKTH
In words: Glucuronidation by expressed human UGT1A9. To be noted: UGT1A9, 2.5 μM substrate, 37°C.

For data set [3], the target named is T3, UGT2B7 (Homo sapiens, UniProt P16662).
T3 sequence (P16662 24-529): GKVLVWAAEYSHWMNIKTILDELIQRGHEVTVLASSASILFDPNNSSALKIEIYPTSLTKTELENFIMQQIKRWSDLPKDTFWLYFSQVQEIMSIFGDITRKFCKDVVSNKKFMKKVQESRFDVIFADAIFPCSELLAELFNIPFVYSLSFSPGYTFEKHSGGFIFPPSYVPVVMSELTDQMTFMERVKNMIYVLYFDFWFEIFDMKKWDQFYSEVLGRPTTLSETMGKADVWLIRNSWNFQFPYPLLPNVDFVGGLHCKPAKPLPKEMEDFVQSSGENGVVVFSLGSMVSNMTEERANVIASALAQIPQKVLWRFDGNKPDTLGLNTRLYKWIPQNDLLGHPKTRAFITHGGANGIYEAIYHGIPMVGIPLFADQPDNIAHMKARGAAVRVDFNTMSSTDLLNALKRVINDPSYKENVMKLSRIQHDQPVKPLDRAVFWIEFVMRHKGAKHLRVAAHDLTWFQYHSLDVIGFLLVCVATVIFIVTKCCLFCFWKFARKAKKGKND
In words: Glucuronidation by expressed human UGT2B7. To be noted: for glucuronidation rate: 37°C.

For data set [4], the target named is T4, UGT1A10 (Homo sapiens, UniProt Q9HAW8).
T4 sequence (Q9HAW8 26-530): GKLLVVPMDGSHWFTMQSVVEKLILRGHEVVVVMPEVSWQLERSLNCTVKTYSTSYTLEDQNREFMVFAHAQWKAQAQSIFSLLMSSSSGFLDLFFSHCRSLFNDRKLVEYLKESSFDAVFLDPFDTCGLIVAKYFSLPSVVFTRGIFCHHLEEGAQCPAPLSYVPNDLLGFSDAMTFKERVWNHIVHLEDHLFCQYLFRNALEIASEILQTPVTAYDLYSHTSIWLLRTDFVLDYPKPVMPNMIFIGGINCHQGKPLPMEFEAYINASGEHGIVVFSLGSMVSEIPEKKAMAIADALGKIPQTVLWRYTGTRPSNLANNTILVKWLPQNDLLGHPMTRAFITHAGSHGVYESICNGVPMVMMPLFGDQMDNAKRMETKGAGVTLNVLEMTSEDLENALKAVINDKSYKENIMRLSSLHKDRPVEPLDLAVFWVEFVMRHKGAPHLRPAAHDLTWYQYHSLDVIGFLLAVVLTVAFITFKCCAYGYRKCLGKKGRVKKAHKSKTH
In words: Glucuronidation by expressed human UGT1A10. Particulars: UGT1A10, 10 μM substrate, 37°C.

The target in data set [5] is T5, UGT1A8 (Homo sapiens, UniProt Q9HAW9).
T5 sequence (Q9HAW9 26-530): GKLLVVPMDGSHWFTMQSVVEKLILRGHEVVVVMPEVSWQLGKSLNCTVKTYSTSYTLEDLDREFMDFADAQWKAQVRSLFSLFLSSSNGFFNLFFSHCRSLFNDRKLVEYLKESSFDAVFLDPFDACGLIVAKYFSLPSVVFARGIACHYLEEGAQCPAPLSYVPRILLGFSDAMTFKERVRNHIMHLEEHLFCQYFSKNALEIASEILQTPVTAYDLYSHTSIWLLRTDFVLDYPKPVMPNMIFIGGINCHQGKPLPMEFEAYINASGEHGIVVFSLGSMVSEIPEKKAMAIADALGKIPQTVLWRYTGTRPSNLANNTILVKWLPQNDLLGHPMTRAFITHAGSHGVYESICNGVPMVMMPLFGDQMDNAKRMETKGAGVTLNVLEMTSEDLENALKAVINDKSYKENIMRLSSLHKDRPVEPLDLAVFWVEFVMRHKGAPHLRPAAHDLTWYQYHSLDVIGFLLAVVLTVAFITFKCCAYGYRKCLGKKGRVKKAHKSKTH
The experiment in a line: Glucuronidation by expressed human UGT1A8. To be noted: UGT1A8, 2.5μM substrate, 37°C.

The target in data set [6] is T6, UGT1A1 (Homo sapiens, UniProt P22309).
T6 sequence (P22309 26-533): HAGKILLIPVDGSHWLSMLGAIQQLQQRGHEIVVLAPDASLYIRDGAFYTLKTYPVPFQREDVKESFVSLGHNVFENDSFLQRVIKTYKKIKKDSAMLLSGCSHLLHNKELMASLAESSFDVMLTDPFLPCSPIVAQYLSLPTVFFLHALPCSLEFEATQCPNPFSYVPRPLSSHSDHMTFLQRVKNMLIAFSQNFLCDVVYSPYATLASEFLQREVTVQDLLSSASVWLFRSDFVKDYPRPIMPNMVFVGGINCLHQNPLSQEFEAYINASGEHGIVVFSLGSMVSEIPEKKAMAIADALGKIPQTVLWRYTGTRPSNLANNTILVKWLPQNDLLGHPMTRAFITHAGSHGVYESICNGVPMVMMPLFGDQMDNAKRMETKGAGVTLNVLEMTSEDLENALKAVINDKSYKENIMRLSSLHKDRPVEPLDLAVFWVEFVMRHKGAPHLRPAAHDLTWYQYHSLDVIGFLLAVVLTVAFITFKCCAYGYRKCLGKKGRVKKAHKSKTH
In words: Glucuronidation by expressed human UGT1A1. Particulars: 37°C.

The nature of data set [7]: Glucuronidation by pooled human liver microsomes. To be noted: human liver microsomes, 2.5μM substrate.
The nature of data set [8]: Glucuronidation by pooled human intestinal microsomes. Particulars: human intestinal microsomes.

As to `O=c1c(O)c(-c2ccccc2)oc2ccccc12` [3-HF, 3-hydroxyflavone], the glucuronidation rate in data set [1] is on record as 8.27±0.15 nmol per min per mg of protein; in data set [2] it was 3.03±0.04 nmol per min per mg of protein; in data set [3] (UGT2B7, 2.5μM substrate), 1.39±0.14 nmol per min per mg of protein; in data set [3] (UGT2B7, 10μM substrate) it was 5.35±0.91 nmol per min per mg of protein; in data set [3] (UGT2B7, 35μM substrate), 2.19±0.07 nmol per min per mg of protein; in data set [4] it was 1.37±0.19 nmol per min per mg of protein. The glucuronidation rate in data set [5] was 2.19 ± 0.27 nmol per min per mg of protein; in data set [6] (UGT1A1, 2.5μM substrate) it was 2.68 ± 0.47 nmol per min per mg of protein; in data set [6] (UGT1A1, 10μM substrate), 3.80±0.21 nmol per min per mg of protein; in data set [6] (UGT1A1, 35μM substrate), 3.85±0.12 nmol per min per mg of protein; in data set [7] it was 5.04±0.48 nmol per min per mg of protein; in data set [8] (2.5 μM substrate), 12.35±1.32 nmol per min per mg of protein. Moreover, in data set [3] (UGT2B7, conclusion from fingerprints), the “substrate of UGT2B7” value is on record as “substrates”. In addition, the “magnitude of the difference between fastest and slowest glucuronidation rate” value in data set [8] (2.5 μM, 3-HF vs 5-HF) came to 25 folds.
